Legend:
Type in all cases: cell-based
human TLR7 (hTLR7) = molecular target: T1, human TLR7 (hTLR7) (Homo sapiens, UniProt Q9NYK1); test: In vitro TLR7 activity assay (HEK-Blue hTLR7, QUANTI-Blue, Example 3); conditions: 16 h incubation; Null 1-k subtracted
T1 construct: host or cells: HEK-293 (HEK-Blue hTLR7)
T1 sequence (Q9NYK1 27-1049): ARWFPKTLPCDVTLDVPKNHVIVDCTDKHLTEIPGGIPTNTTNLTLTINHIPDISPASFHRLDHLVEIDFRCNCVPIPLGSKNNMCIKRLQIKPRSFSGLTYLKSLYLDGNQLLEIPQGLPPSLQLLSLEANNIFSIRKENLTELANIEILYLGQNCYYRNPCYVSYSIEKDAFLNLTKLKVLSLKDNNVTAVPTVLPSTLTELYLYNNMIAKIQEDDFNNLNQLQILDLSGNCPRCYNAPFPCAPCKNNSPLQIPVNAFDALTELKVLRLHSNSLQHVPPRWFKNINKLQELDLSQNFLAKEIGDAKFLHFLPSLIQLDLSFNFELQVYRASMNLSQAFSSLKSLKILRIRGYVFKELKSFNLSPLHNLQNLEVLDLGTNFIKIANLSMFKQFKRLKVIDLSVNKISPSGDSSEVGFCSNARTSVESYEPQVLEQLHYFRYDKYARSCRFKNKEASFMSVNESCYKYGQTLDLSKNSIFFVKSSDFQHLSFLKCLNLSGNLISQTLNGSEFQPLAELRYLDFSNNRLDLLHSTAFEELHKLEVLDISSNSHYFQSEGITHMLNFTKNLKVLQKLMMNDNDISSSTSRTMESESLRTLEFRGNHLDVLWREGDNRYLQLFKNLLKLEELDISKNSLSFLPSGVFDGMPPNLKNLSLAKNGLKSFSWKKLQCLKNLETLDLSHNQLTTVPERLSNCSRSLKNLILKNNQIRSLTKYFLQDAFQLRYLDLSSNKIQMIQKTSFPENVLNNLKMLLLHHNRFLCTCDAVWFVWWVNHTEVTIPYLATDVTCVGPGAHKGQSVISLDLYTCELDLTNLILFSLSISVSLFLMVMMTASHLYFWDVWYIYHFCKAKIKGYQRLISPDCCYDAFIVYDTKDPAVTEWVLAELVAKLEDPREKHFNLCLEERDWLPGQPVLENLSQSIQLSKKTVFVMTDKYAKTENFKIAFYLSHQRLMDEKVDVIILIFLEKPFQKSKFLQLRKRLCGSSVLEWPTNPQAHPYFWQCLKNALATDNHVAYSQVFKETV
Experimental: TLR agonist activity was measured in a dose-response study using reporter cell lines expressing the human TLR7 (hTLR7). […] The hTLR7 activity of R848-Toco, the formulation and its components were assessed using HEK-293 cells co-transfected with the hTLR7 gene and an inducible SEAP reporter gene along with the corresponding null control line (HEK-Blue™ hTLR7 and Null-1k cells, Invivogen). Cells were maintained in DMEM media with selective antibiotics according to the manufacturer protocol.^26 HEK-Blue™ cells were seeded into 96 well plates at a density of 220,000 cells/mL with 180 μL/well of culture medium. Stock solutions in DMSO were first serially diluted to seven concentrations (DMSO solutions further diluted into H2O). Each well was stimulated with 20 μL of agonists or agonist-free controls (equivalent concentration of HA-Toco, D-α-Tocopherol succinate, PBS or […] DMSO) at the determined final concentrations in 5 replicates. After 16 h of incubation at 37° C. in a 5% CO2 atmosphere, 20 μL of the supernatant from each well was sampled and spiked into 180 μL of QUANTI-Blue™ solution followed by incubation for 1 h at 37° C. Relative hTLR7 activity was then analyzed by UV-Vis at 637 nm using a microplate UV reader (SpectraMAX GeminiXS, Molecular Devices, San Jose, CA, USA). For each compound and concentration, a corresponding sample was applied to the HEK-Blue™ Null-1k cell line. The TLR7 agonist activity was determined after averaging across hTLR7 replications and subtracting the averaged Null response.
Activation levels were calculated as the difference between the average readings of the hTLR7 cell line and the Null 1-k cell line, to account for non-hTLR7 related induction of NF-κB. […] Therefore, this study confirmed that R848-Toco, formulated with HA-Toco as an emulsion, maintained its TLR agonist activity. […]

hTLR8 = molecular target: T2, hTLR8 (Homo sapiens, UniProt Q9NR97); test: SEAP reporter assay for hTLR-8 activity (HEK-Blue hTLR8 cells); conditions: ± SD; hTLR8 transfected HEK-Blue cells, Null subtracted; three independent measurements; 12 hours; >100 = no activity observed at 100 μM; read-out: EC50 TLR8
T2 construct: host or cells: HEK293 (HEK-Blue hTLR8)
T2 sequence (Q9NR97 27-1041): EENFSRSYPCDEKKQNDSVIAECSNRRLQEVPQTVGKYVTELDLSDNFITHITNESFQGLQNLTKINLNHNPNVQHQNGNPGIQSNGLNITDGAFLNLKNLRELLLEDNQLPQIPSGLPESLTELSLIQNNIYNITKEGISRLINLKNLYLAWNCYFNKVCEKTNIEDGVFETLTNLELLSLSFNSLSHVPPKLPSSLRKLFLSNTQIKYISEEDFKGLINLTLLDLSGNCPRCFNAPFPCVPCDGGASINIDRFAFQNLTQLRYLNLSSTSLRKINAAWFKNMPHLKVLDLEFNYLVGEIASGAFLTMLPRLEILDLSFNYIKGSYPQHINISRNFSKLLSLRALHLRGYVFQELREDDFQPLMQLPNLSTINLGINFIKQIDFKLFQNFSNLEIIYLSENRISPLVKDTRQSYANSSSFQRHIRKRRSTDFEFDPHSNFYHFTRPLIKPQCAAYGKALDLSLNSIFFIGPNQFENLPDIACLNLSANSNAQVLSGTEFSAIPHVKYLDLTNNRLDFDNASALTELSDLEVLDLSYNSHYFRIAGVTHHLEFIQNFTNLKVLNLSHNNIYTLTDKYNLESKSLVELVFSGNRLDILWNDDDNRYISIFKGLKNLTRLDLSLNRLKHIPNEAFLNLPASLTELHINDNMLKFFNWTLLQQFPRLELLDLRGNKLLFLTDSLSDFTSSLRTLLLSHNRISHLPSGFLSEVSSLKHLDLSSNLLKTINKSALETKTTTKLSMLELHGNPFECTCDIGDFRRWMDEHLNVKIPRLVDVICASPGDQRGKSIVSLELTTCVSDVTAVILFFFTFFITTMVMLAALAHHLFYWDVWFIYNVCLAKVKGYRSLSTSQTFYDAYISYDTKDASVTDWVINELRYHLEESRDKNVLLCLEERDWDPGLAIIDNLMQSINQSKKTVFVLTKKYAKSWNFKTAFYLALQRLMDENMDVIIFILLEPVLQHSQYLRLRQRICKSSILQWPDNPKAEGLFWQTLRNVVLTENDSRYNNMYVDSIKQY
Experimental: (§1) TLR activation induces NF-κB production and subsequent SEAP secretion, which is measured using HEK-Detection media (InvivoGen) containing a colorimetric substrate for SEAP (UV-Vis, 637 nm).
(§2) The experiments followed manufacturer protocol as follows: SEAP levels were measured via absorbance at 637 nm using HEK-Blue Detection cell culture medium (InvivoGen), which contains a SEAP-specific colorimetric substrate. Compound stock solutions were first diluted in sterile DMSO at a concentration of 10 mM. Lower concentrations were prepared by serial dilution of the initial 10 mM stock samples into sterile DMSO and these solutions (22 μL) were subsequently diluted into sterile H2O (198 μL) using a BioTek Precision XS pipetting system. HEK-Blue hTLR7, HEK-Blue hTLR8, Null 1−k, and Null 1 cell suspensions in sterile HEK-Blue Detection medium were prepared at a density of 220,000 cells per mL. Clear bottom, 96-well tissue culture treated plates (Corning) were seeded with hTLR7 and Null 1−k or hTLR8 and Null 1 cell suspensions (180 μL/well), after which 20 μL of the various sample concentrations in 10% v/v DMSO/H2O were added (20 μL) in quadruplicate wells to yield the desired testing concentration in 1% v/v DMSO cell suspension. Plates were incubated at 37° C. and 5% CO2 in the dark. Absorbance measurements were taken at 637 nm at 12 hours, 4 replicates per concentration point, per cell line (hTLR7, hTLR8, Null 1−k, Null 1). Three independent measurements on different days were performed for each analog.
(§3) Corresponding well absorbance values for each concentration tested were averaged with respect to days tested, and the average relative NF-κB induction (UV-Vis, 637 nm) of the null cell lines (Null 1-k or Null 1) were subtracted from the respective average TLR expressing cell line (hTLR7 or hTLR8) absorbance averages. […] The three independent, normalized averages for each analog were then pooled, and the data was fit using the Hill-Slope model (GraphPad Prism v7.0) using the non-linear fit from the [Agonist] vs. response—Variable Slope (four parameters) with a hill slope constrained to less than 3.

hTLR7 = molecular target: T3, hTLR7 (Homo sapiens, UniProt Q9NYK1); test: SEAP reporter assay for hTLR-7 activity (HEK-Blue hTLR7 cells); conditions: ± SD; hTLR7 transfected HEK-Blue cells, Null subtracted; three independent measurements; 12 hours; read-out: EC50 TLR7
T3 construct: host or cells: HEK293 (HEK-Blue hTLR7)
T3 sequence (Q9NYK1 27-1049): T1 sequence (Q9NYK1 27-1049)
Experimental: as §1, §2, §3

[1] = test system: canine peripheral blood mononuclear cells (cPBMCs); test: Cytokine production in canine PBMCs by ELISA (Example 2); conditions: ± SD, 20 μM, 29 hours, ELISA, triplicate
Experimental: The imidazoquinolines were further screened for cytokine production in canine peripheral blood mononuclear cells (cPBMCs). […] TNFα and IL-12 were chosen as they are typically seen in a Th-1 cytokine response.
Peripheral blood from a healthy canine donor was obtained with appropriate informed consent of the owner and under approved institutional guidelines. Blood (8 mL per tube) was drawn via sterile venipuncture into a BD Vacutainer cell preparation tube containing sodium heparin (BD Biosciences). PBMCs were isolated within one hour following procurement by density gradient centrifugation according to the manufacturer protocol and resuspended to 2.22×10^6 cells/mL in sterile RPMI 1640 medium with L-glutamine (Gibco) supplemented with 100 U/mL penicillin, 100 μg/mL streptomycin (Corning) and 10% (v/v) heat-inactivated Fetalgro (RMBIO). Corning 3917, 96-well tissue culture treated plates were seeded with the PBMC suspension (180 μL/well), 20 μL of the serially diluted TLR agonists were added in triplicate to yield the desired concentrations in a 1% (v/v) DMSO cell suspension. Cells were incubated at 37° C. in 5% CO2 for 9 hours (FIGS. 3A-3D) or 29 hours (Table 2) after which supernatants were removed and frozen at −80° C. Cytokine secretion levels were measured by ELISA (Duoset, R&D Systems) according to the manufacturer protocol. Samples and standards (n=3) were thawed and plated onto a Maxisorp flat-bottom, 384-well plate (Thermo Scientific) using a BioTek Precision XS pipetting system. Cytokine concentrations were determined by a hyperbolic or four-parameter logistic non-linear regression of the recombinant standards and subsequent interpolation using Graphpad Prism 7.0.

Compound | hTLR7 activation (NF-κB, in words) (human TLR7 (hTLR7)) | EC50 (hTLR8) | EC50 (hTLR7) | Cytokine IFNg [1] | Cytokine IL-2 [1] | Cytokine IL-6 [1] | Cytokine IL-10 [1] | Cytokine IL-12 [1] | Cytokine TNFa [1]
Cc1c(C)c2c(c(C)c1OC(=O)CCC(=O)O)CC[C@@](C)(CCC[C@H](C)CCC[C@H](C)CCCC(C)C)O2 [Toco-succinate, (+)-α-tocopherol succinate] | did not induce any significant activation |  |  |  |  |  |  |  | 
CCCCc1nc2c(N)nc3cc(OC)ccc3c2n1CC(C)C [Compound 4, 4-Amino-2-butyl-7-methoxy-1-(2-methylpropyl)-1H-imidazo[4,5-c]quinoline] |  | > 100 µM | 0.11 ± 0.01 µM | 0 pg/mL | 30 ± 29 pg/mL | 500 ± 140 pg/mL | 37 ± 13 pg/mL | 746 ± 130 pg/mL | 49 ± 9 pg/mL
CCOCc1nc2c(N)nc3cc(C#N)ccc3c2n1CC(C)(C)O [Compound 13, 4-Amino-7-carbonitrile-2-(ethoxymethyl)-1-(2-hydroxy-2-methylpropyl)-1H-imidazo[4,5-c]quinoline] |  | 27 ± 6 µM | 3.5 ± 0.7 µM | 0.2 ± 0.4 pg/mL | 46 ± 42 pg/mL | 214 ± 69 pg/mL | 6 ± 3 pg/mL | 13 ± 3 pg/mL | 80 ± 20 pg/mL
CCCCc1nc2c(N)nc3cc(Cl)ccc3c2n1CC(C)C [Compound 6, 4-Amino-2-butyl-7-chloro-1-(2-methylpropyl)-1H-imidazo[4,5-c]quinoline] |  | > 100 µM | 0.3 ± 0.02 µM | 7 ± 1 pg/mL | 63 ± 44 pg/mL | 240 ± 67 pg/mL | 14 ± 4 pg/mL | 760 ± 50 pg/mL | 91 ± 20 pg/mL

Source: US12295970B2, “Imidazoquinoline compounds and prodrugs thereof” (UNIVERSITY OF KANSAS, priority 2019, dated 2025)
